Assays:
PKCβ1 = target: T1, PKCβ1 (Homo sapiens, UniProt P05771); assay: Kinase panel, CaNDY 1 µM; format: biochemical; details: CaNDY 1 µM relative to DMSO
T1 construct: purchased Carna Biosciences

CK2α2/β = target: T2, CK2α2/β (Homo sapiens, UniProt P19784); assay: Kinase panel, CaNDY 1 µM; format: biochemical; details: CaNDY 1 µM relative to DMSO
T2 construct: purchased Carna Biosciences

RET(S891A) = target: T3, RET(S891A) (Homo sapiens, UniProt P07949, S891A); assay: Kinase panel, CaNDY 1 µM; format: biochemical; details: CaNDY 1 µM relative to DMSO
T3 construct: purchased Carna Biosciences

DYRK1A = DYRK1A (Homo sapiens, UniProt Q13627); assay: In vitro kinase assay, substrate DYRKtide-F; format: biochemical; design: full-length human recombinant kinases were expressed using a baculovirus expression system as amino-terminal GST-fusion proteins; GST (N); purchased Carna Biosciences; host or cells: baculovirus expression system; details: 25 μM ATP, 1 μM DYRKtide-F; read-out: IC50, substrate phosphorylation
Excerpt: (§1) Detailed information on the assay conditions is available on the website of Carna Biosciences (http://www.carnabio.com/english/index.html; Kobe, Japan). In brief, full-length human recombinant kinases were expressed using a baculovirus expression system as amino-terminal GST-fusion proteins, and purified by glutathione-Sepharose chromatography. The GenBank accession numbers of DYRK1A, DYRK1B, DYRK2, and DYRK3 were NP_001387.2, NP_004705.1, NP_003574.1, and NP_003573.2. […] For each compound, a DMSO solution was diluted in assay buffer to yield a final concentration of 1% DMSO. After incubation for one hour at room temperature, substrate phosphorylation was analyzed by electrophoretic separation of the substrate and products using a Caliper LC3000 platform (Caliper Life Sciences, Mountain View, CA, USA). The phosphorylated product (P)/(P + substrate) ratio was calculated at each concentration of each small molecule and the percent inhibition was expressed relative to a control assay in the absence of the small molecule. […] The IC50 of each compound was calculated by interpolation on a log-concentration-response curve fitted with a four-parameter logistic equation.

DYRK1B = DYRK1B (Homo sapiens, UniProt Q9Y463); assay: In vitro kinase assay, substrate DYRKtide-F; format: biochemical; design: full-length human recombinant kinases were expressed using a baculovirus expression system as amino-terminal GST-fusion proteins; GST (N); purchased Carna Biosciences; host or cells: baculovirus expression system; details: 50 μM ATP, 1 μM DYRKtide-F
Excerpt: as §1

RET = target: T4, RET (Homo sapiens, UniProt P07949); assay: Kinase panel, CaNDY 1 µM; format: biochemical; details: CaNDY 1 µM relative to DMSO
T4 construct: purchased Carna Biosciences

CaMK1α = target: T5, CaMK1α (Homo sapiens, UniProt Q14012); assay: Kinase panel, CaNDY 1 µM; format: biochemical; details: CaNDY 1 µM relative to DMSO
T5 construct: purchased Carna Biosciences

3xFLAG-DYRK1A = target: T6, 3xFLAG-DYRK1A (Homo sapiens, UniProt Q13627); assay: Western blot of 3xFLAG-DYRK1A level in transfected 293T cells; format: cell-based; details: CaNDY 2 μM, 8 h, compared with DMSO
T6 construct: F2A peptide linking to EGFP (2A skipping releases EGFP; a 2A remnant may stay on DYRK1A) (C); expressed in transfected cells; host or cells: 293T cells, transient
Procedure: To investigate whether DYRK1A is a client kinase of the CDC37/HSP90 system, we used a HSP90 inhibitor, ganetespib. 293T cells were transiently transfected with an expression vector of 3xFLAG-tagged DYRK1A (3xFLAG-DYRK1A). At 24 h after transfection, the cells were treated with ganetespib for the indicated time (0–8 h). Total cell lysates were collected and subjected to SDS-PAGE followed by Western blot analysis.
Figure 1 Ganetespib, a HSP90 inhibitor, decreases the DYRK1A protein level. 293T cells were transiently transfected with an expression vector for 3xFLAG-DYRK1A. At 24 h after transfection, the cells were treated with ganetespib (100 nM) and collected 0 and 8 h after treatment. Total cell lysates were subjected to SDS-PAGE followed by Western blot analysis using antibodies against FLAG and GAPDH. In the control group (DMSO), expression of 3xFLAG-DYRK1A increased at 8 h compared to 0 h, and ganetespib suppressed this increase of 3xFLAG-DYRK1A.
Western blot analysis was performed using the antibodies described above. In brief, total cell lysates were separated by SDS-PAGE (5–20% gels; ATTO, Tokyo, Japan) under reducing conditions and then transferred to a PVDF membrane (PALL, SP, Brazil). Antibody reactions were performed with Can Get Signal® Immunoreaction Enhancer Solution (Toyobo). Peroxidase activities on the membrane were visualized with ECL Western Blotting Detection Reagents (GE Healthcare) or ImmunoStar® LD (Wako Pure Chemical Industries, Osaka, Japan), and a ChemiDoc^TM MP Imaging System (Bio-Rad, Hercules, CA, USA).

IRAK4 = target: T7, IRAK4 (Homo sapiens, UniProt Q9NWZ3); assay: Kinase panel, CaNDY 1 µM; format: biochemical; details: CaNDY 1 µM relative to DMSO
T7 construct: purchased Carna Biosciences

MST1 = target: T8, MST1 (Homo sapiens, UniProt Q13043); assay: Kinase panel, CaNDY 1 µM; format: biochemical; details: CaNDY 1 µM relative to DMSO
T8 construct: purchased Carna Biosciences

PAK1 = target: T9, PAK1 (Homo sapiens, UniProt Q13153); assay: Kinase panel, CaNDY 1 µM; format: biochemical; details: CaNDY 1 µM relative to DMSO
T9 construct: purchased Carna Biosciences

PBK = target: T10, PBK (Homo sapiens, UniProt Q96KB5); assay: Kinase panel, CaNDY 1 µM; format: biochemical; details: CaNDY 1 µM relative to DMSO
T10 construct: purchased Carna Biosciences

MAP3K4_Cascade = target: T11, MAP3K4_Cascade (Homo sapiens, UniProt Q9Y6R4); assay: Kinase panel, CaNDY 1 µM; format: biochemical; details: CaNDY 1 µM relative to DMSO
T11 construct: purchased Carna Biosciences

PIM1 = target: T12, PIM1 (Homo sapiens, UniProt P11309); assay: Kinase panel, CaNDY 1 µM; format: biochemical; details: CaNDY 1 µM relative to DMSO
T12 construct: purchased Carna Biosciences

HER2 = target: T13, HER2 (Homo sapiens, UniProt P04626); assay: Kinase panel, CaNDY 1 µM; format: biochemical; details: CaNDY 1 µM relative to DMSO
T13 construct: purchased Carna Biosciences

CK1γ2 = target: T14, CK1γ2 (Homo sapiens, UniProt P78368); assay: Kinase panel, CaNDY 1 µM; format: biochemical; details: CaNDY 1 µM relative to DMSO
T14 construct: purchased Carna Biosciences

CRIK = target: T15, CRIK (Homo sapiens, UniProt O14578); assay: Kinase panel, CaNDY 1 µM; format: biochemical; details: CaNDY 1 µM relative to DMSO
T15 construct: purchased Carna Biosciences

FGFR4(N535K) = target: T16, FGFR4(N535K) (Homo sapiens, UniProt P22455, N535K); assay: Kinase panel, CaNDY 1 µM; format: biochemical; details: CaNDY 1 µM relative to DMSO
T16 construct: purchased Carna Biosciences

JAK1 = target: T17, JAK1 (Homo sapiens, UniProt P23458); assay: Kinase panel, CaNDY 1 µM; format: biochemical; details: CaNDY 1 µM relative to DMSO
T17 construct: purchased Carna Biosciences

GSK3α = target: T18, GSK3α (Homo sapiens, UniProt P49840); assay: Kinase panel, CaNDY 1 µM; format: biochemical; details: CaNDY 1 µM relative to DMSO
T18 construct: purchased Carna Biosciences
T18 sequence (P49840 whole entry): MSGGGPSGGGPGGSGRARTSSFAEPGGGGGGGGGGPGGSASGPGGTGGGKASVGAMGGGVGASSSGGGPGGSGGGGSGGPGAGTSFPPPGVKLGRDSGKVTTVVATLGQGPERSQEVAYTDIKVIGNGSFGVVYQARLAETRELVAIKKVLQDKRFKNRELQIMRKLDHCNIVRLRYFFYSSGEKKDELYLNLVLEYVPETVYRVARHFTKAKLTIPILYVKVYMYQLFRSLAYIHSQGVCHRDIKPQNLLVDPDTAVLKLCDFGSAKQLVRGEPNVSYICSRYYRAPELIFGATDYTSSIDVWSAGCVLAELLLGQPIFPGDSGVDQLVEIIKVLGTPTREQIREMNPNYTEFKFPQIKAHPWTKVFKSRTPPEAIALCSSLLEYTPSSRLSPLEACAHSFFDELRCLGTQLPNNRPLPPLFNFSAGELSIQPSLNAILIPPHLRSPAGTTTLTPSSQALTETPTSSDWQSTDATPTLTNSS

T7 sequence (Q9NWZ3 whole entry): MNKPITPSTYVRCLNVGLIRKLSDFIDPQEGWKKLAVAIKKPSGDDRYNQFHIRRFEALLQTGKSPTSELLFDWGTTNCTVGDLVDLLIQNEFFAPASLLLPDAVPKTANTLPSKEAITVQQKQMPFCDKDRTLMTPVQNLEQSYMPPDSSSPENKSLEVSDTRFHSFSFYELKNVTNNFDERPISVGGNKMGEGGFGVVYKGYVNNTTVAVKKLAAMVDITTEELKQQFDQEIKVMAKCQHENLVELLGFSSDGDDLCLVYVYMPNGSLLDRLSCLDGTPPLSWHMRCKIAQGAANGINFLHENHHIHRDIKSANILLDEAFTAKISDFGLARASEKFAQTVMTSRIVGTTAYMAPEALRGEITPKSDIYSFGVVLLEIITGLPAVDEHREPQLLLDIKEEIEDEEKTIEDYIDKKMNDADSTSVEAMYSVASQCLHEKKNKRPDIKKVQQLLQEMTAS
T14 sequence (P78368 whole entry): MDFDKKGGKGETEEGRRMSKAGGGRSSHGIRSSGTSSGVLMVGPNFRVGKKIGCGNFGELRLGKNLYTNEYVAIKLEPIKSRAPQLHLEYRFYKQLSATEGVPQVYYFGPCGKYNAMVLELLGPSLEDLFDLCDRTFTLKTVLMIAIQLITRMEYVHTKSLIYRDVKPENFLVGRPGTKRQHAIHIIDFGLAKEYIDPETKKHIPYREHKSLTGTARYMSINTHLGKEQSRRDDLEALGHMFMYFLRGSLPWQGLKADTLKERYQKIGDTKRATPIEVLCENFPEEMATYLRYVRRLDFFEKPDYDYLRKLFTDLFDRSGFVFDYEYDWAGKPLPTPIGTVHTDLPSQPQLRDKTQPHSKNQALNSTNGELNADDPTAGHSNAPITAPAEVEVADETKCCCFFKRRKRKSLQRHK
T3 sequence (P07949 29-1114 S891A): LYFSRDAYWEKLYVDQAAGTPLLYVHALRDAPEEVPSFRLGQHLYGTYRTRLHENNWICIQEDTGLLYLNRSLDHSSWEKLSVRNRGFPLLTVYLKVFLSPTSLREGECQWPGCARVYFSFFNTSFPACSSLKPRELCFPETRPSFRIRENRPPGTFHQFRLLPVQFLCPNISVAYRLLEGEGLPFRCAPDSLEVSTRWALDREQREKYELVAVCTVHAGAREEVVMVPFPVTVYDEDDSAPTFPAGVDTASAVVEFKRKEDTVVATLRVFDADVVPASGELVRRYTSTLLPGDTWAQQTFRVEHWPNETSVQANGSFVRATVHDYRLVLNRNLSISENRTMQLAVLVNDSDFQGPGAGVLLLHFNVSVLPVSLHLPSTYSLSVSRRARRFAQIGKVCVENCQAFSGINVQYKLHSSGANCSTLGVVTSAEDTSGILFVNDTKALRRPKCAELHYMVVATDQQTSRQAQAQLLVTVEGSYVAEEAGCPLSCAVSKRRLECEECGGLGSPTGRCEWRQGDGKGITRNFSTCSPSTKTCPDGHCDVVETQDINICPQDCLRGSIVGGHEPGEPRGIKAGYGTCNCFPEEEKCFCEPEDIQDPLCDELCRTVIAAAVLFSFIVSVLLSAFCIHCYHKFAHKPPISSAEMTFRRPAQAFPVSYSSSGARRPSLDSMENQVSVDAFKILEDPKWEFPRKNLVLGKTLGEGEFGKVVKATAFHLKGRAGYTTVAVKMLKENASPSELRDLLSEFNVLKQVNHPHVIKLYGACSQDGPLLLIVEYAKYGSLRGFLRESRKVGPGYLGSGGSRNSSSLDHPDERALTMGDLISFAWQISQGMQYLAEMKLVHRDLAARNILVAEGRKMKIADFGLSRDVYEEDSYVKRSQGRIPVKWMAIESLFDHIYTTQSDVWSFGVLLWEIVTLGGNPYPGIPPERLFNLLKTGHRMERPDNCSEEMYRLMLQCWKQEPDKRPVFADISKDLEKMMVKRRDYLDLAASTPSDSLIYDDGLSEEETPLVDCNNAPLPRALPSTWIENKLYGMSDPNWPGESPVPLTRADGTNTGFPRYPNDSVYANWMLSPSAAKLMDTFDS
T17 sequence (P23458 whole entry): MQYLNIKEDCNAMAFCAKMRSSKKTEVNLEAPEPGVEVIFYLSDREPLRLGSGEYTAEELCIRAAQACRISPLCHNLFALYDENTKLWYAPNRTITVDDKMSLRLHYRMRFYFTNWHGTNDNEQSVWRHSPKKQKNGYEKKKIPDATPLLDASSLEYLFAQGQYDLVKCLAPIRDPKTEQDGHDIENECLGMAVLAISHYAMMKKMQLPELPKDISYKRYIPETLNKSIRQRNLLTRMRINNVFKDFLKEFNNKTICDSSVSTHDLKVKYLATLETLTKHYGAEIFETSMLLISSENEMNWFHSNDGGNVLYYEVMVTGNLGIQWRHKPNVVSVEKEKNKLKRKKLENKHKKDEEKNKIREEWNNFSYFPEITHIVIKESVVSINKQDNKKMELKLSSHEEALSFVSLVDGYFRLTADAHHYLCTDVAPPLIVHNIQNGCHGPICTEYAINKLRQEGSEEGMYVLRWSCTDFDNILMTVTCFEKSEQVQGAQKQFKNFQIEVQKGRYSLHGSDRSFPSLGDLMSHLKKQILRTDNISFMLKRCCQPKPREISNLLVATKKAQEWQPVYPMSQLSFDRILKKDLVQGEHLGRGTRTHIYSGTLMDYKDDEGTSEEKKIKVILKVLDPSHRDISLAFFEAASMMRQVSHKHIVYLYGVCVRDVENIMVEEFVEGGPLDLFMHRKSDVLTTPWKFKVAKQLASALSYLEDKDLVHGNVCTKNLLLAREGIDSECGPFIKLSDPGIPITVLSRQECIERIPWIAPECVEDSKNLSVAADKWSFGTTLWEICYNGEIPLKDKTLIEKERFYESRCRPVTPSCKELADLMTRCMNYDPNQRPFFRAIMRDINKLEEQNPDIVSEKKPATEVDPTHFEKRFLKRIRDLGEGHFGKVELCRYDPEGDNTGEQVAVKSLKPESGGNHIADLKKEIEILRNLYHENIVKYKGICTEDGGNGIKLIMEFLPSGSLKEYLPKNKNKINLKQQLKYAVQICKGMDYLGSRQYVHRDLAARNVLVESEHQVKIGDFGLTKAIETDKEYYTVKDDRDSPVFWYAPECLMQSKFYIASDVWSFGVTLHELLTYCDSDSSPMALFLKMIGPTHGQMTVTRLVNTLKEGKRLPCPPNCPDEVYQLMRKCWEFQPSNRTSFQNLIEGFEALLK
T4 sequence (P07949 29-1114): as the sequence (P07949 29-1114 S891A) above, with A863S counted along it
T16 sequence (P22455 22-802 N535K): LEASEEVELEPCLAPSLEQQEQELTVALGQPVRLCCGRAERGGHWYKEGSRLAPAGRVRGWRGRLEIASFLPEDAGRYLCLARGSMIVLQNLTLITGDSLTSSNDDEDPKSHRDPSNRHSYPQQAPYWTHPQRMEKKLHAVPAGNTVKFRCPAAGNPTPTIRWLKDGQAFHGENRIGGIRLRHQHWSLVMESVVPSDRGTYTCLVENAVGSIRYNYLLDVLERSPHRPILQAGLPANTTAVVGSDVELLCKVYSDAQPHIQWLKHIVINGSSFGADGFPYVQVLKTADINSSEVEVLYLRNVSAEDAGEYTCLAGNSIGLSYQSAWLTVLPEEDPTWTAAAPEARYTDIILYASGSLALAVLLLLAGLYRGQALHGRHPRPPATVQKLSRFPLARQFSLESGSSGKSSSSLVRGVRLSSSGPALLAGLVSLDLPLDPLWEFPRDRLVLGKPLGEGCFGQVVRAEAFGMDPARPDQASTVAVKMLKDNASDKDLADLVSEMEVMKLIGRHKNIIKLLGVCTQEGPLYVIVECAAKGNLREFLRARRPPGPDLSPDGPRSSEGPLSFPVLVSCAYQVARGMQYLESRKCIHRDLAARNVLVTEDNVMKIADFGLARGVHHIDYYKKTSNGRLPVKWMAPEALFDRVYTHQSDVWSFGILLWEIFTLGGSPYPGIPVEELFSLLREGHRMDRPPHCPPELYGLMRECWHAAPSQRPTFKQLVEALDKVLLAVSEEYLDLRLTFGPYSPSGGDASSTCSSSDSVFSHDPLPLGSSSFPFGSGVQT
T8 sequence (Q13043 whole entry): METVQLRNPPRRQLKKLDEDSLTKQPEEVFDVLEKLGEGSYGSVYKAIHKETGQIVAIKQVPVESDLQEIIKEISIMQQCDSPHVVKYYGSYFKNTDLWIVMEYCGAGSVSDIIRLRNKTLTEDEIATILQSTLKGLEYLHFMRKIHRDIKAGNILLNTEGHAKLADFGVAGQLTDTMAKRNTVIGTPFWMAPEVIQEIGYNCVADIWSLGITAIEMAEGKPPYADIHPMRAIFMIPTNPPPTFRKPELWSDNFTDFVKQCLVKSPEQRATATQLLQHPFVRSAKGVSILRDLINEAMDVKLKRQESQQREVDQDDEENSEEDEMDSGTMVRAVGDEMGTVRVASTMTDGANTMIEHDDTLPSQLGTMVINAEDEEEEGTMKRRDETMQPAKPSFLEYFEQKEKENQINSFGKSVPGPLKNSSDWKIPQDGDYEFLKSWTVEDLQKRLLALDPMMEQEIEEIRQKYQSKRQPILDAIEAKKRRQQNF

With [H]/N=C1/NC(=O)C(=Cc2ccc3c(c2)CCO3)S1 [CaNDY, (Z)-5-[(2,3-dihydrobenzofuran-5-yl)methylene]-2-iminothiazolidin-4-one] the remaining activity at 1 µM (PKCβ1) was 83.8%, the remaining activity at 1 µM (CK2α2/β) was 23.4% and the remaining activity at 1 µM (RET(S891A)) was 103%. For the same compound, the IC50 (DYRK1A) was 7.9 nM, the IC50 (DYRK1B) was 24.1 nM and the remaining activity at 1 µM (RET) was 102%. The remaining activity at 1 µM (CaMK1α) was 100%, the 3xFLAG-DYRK1A level (3xFLAG-DYRK1A) was “decreased the 3xFLAG-DYRK1A level” and the “%Activity” value (IRAK4) was 100.8%. For the same compound, the “%Activity” value (MST1) was 101.2%, the remaining activity at 1 µM (PAK1) was 98.6% and the remaining activity at 1 µM (PBK) was 98.4%. For the same compound, the remaining activity at 1 µM (MAP3K4_Cascade) was 101%, the remaining activity at 1 µM (PIM1) was 36.5% and the remaining activity at 1 µM (HER2) was 106%. The “%Activity” value (CK1γ2) was 75.4%, the “%Activity” value (CRIK) was 87.0% and the remaining activity at 1 µM (FGFR4(N535K)) was 100%. For the same compound, the “%Activity” value (JAK1) was 96.9% and the remaining activity at 1 µM (GSK3α) was 76.6%.
